Test results published in patent US20250295668A1, “METHODS FOR INDUCING COLANIC ACID BIOSYNTHESIS” (priority 2024, published 2025).
≈ marks a conversion by molar mass, not a printed value. Where “and” joins values, the source holds several entries; their conditions need not be identical. Identical values can stand only once. Entries after “also recorded” stand apart in the source; their conditions may differ. Like-named read-outs stand apart in the source and are kept apart here.

How the values were obtained:
C. elegans = C. elegans lifespan assay on antibiotic-treated E. coli; assay type: in vivo, Caenorhabditis elegans
Method: For longitudinal assays, E. coli Keio mutants were initially cultivated in M9 minimum medium at 37° C. for 16 hours. Subsequently, bacteria at stationary phase were reinoculated in fresh M9 medium with a low dose of cephaloridine at 37° C. for another 16 hours. A 100 μL aliquot of the bacteria culture was seeded onto each 6-cm NGM plate and maintained at 20° C. Fresh bacteria plates were prepared every other day for transfer to alive worms. Caenorhabditis elegans var. Bristol N2 strain was obtained from the Caenorhabditis Genome Center. The strain was maintained on standard nematode growth medium (NGM) agar plates seeded with corresponding bacteria at 20° C. Age synchronization of C. elegans was achieved by isolating eggs as previously described [PMID: 4858229]. Lifespan assays were performed as previously described [PMID: 25554789]. In brief, age-synchronized C. elegans at the L1 stage were seeded onto designated bacteria lawns. Fresh bacteria-containing plates were made every other day for live C. elegans transfer. Once reaching adulthood as Day 0, worms were transferred to new bacteria plates. Death events were scored upon each transfer. Bagged worms and vulva protruding worms were censored throughout the analysis. Each assay contained 80-100 animals with 30-40 animals per 6 cm plate.

MG1655 E. coli = test: Colanic acid production in MG1655 commensal E. coli; assay type: cell-based; details: MG1655, low-dose cephaloridine, 37° C.
Method: The desired bacterial strain was first inoculated and cultured in M9 minimum medium overnight at 37° C. to obtain the seeding culture. The OD 600 was measured, and the seeding bacteria were diluted to OD600=0.02 in M9 minimum medium for another 16 hours. After the incubation, bacterial cultures were collected in 50 mL tubes, spun down at 4,000 g at 4° C. for 30 min, filtered, and 25 mL of supernatant was collected per 50 ml conical tube. Ice-cold 100% ethanol (EtOH) was added to make a final 50% EtOH solution for precipitation, and the mixture was kept at 4° C. overnight. Once precipitation occurred, the liquid was carefully removed after centrifugation at 4,000 g at 4° C. for 50 min. The pellet was washed once with cold 80% EtOH and then air-dried in a hood. The pellet from every 50 mL culture was resuspended in 500 μL distilled H2O. The solution was sonicated for 60 minutes at 37° C., followed by centrifugation at 4000 g at 4° C. for 10 minutes. […] The fucose quantification assay was then carried out using a K-FUCOSE kit (Megazyme) according to the manufacturer's protocol.
MG1655, a human-derived commensal K12 strain, was treated with a low dose of cephaloridine at 37° C., which induced colanic acid production (FIG. 3A). […] The luminal content of mice ileum was harvested after 3 hours of cephaloridine administration and were imaged for fluorescence. […]

[1] = tested on: cps operon in commensal E. coli; test: cps G-R reporter bacteria from mouse ileum, in vivo imaging (GFP-to-RFP ratio); set-up: species or system C57BL6 mice; details: for increase in GFP-to-RFP ratio: oral gavage plus drinking water, 3 hours, ileum
Method: In vivo imaging: Co-housed female C57BL6 mice received cps G-R reporter E. coli at 1×10^8 CFU per 100 mL through distilled drinking water. The bacteria-containing water was prepared and replaced daily for three days continuously. […] Luminal content from the ileum was collected and processed for imaging bacteria from in vivo samples immediately after euthanasia as previously described [PMID: 34428120]. In brief, the ileum sections were collected and then finely minced by a pair of iris scissors in 2 mL 1×PBS. Samples were then vortexed for 1 minute and filtered with a sterile cell strainer (40 μm) to remove the tissue debris. The microbiota was washed 3 times with 1.5 mL PBS by centrifugation (15,000×g, 3 min) and then resuspended in 0.1 mL PBS for imaging.
The cps G-R reporter strain was introduced to wild-type C57B6 mice through drinking water, followed by cephaloridine administration through a single-dose oral gavage and cephaloridine-containing water for 3 hours, which allowed for sufficient intestinal transit time [PMID: 23915679] and E. coli turnover time [PMID: 26392213] for optimal dosing (FIG. 3E). […] The luminal content of mice ileum was harvested after 3 hours of cephaloridine administration and were imaged for fluorescence.

E. coli deletion mutants = test: Colanic acid measurement in E. coli deletion mutants; assay type: cell-based; details: low-dose cephaloridine
Method: For colanic acid quantification, E. coli Keio mutants and the parental strain BW25113 were cultured overnight at 37° C. in M9 minimum medium [PMID: 28436966]. Bacteria were then removed by centrifugation and filtered for colanic acid measurement.
The desired bacterial strain was first inoculated and cultured in M9 minimum medium overnight at 37° C. to obtain the seeding culture. The OD 600 was measured, and the seeding bacteria were diluted to OD600=0.02 in M9 minimum medium for another 16 hours. After the incubation, bacterial cultures were collected in 50 mL tubes, spun down at 4,000 g at 4° C. for 30 min, filtered, and 25 mL of supernatant was collected per 50 ml conical tube. Ice-cold 100% ethanol (EtOH) was added to make a final 50% EtOH solution for precipitation, and the mixture was kept at 4° C. overnight. Once precipitation occurred, the liquid was carefully removed after centrifugation at 4,000 g at 4° C. for 50 min. The pellet was washed once with cold 80% EtOH and then air-dried in a hood. The pellet from every 50 mL culture was resuspended in 500 μL distilled H2O. The solution was sonicated for 60 minutes at 37° C., followed by centrifugation at 4000 g at 4° C. for 10 minutes. A 200 μL sample was mixed with 30 μL hydrochloric acid (320331-500 mL, Sigma-Aldrich) and boiled for 2 hours. Subsequently, 60 μL 5M NaOH and 150 μL NaHCO3/NaOH buffer were added to reach a pH of 6-8, calibrated by 1M HCl or NaOH solutions. The fucose quantification assay was then carried out using a K-FUCOSE kit (Megazyme) according to the manufacturer's protocol.
The molecular mechanism behind the induction of colanic acid by low-dose cephaloridine was investigated. It was suspected that regulation of the cps operon was centered on the well-known RCS two-component system. Canonically, the RcsC sensor histidine kinase situated in the inner membrane autophosphorylates in response to environmental cues, then the RcsD phosphotransferase transmits the phosphoryl group to the cytosolic response regulator RcsB, which functions as a transcription factor to up-regulate the cps operon, with RcsA interacting with RcsB to enhance its binding with the promoter, thereby stimulating transcriptional activation (FIG. 4A). To assess the necessity of the RCS system in colanic acid induction by low-dose cephaloridine, the E. coli deletion mutants of rcsA, rcsB, rcsC, and rcsD were treated with cephaloridine and colanic acid production was measured in their respective culture mediums.
Considering β-lactam antibiotics show preferential affinities to various penicillin-binding proteins (PBPs) [PMID: 25733506] [PMID: 1103132], the role of these inner membrane proteins in colanic acid induction upon low-dose cephaloridine treatment was determined. […] (FIG. 5A).
To investigate potential mediation of colanic acid induction by these kinases, E. coli deletion mutants of btsS, glrK, and zraS were treated with low-dose cephaloridine and colanic acid levels in their respective culture mediums were measured. Due to slow growth in the M9 culture medium, the rstB deletion mutant could not be evaluated.

E. coli = details: previously reported, cited from earlier work
[2] = PMID 9165537; cited from earlier work

O=C(Cc1cccs1)N[C@@H]1C(=O)N2C(C(=O)[O-])=C(C[n+]3ccccc3)CS[C@H]12 [cephaloridine]
C. elegans lifespan extension vs vehicle (C. elegans; MG1655 E. coli treated with 1.8 μg/mL): 13% and 13.3% | C. elegans lifespan (C. elegans; cephaloridine-treated rcsA deletion mutant E. coli): failed to extend lifespan | C. elegans lifespan (C. elegans; cephaloridine-treated rcsD deletion mutant E. coli): effectively promoted longevity | C. elegans lifespan extension vs vehicle (C. elegans; wildtype E. coli treated with 1.8 μg/mL): 14% | colanic acid production increase (MG1655 E. coli): 3.2 fold | cps operon induction in the mouse intestine ([1]; 4 μg/mL dose): induced the cps operon | increase in GFP-to-RFP ratio ([1]; 4 μg/mL): 13% | cps operon induction in the mouse intestine ([1]; 8 μg/mL dose): failed to exert this effect | increase in GFP-to-RFP ratio ([1]; 8 μg/mL): no such increase | amount of colanic acid vs treated wild-type strain (E. coli deletion mutants; DacB deletion mutant (PBP4)): even greater amount of colanic acid than the wild-type strain | induction of colanic acid (E. coli deletion mutants; DacB deletion mutant (PBP4)): did induce colanic acid production | induction of colanic acid (E. coli deletion mutants; mrcA deletion mutant (PBP1a)): failed to induce colanic acid | induction of colanic acid (E. coli deletion mutants; rcsA deletion mutant): completely abolished the induction of colanic acid | induction of colanic acid (E. coli deletion mutants; rcsB deletion mutant): completely abolished the induction of colanic acid | induction of colanic acid (E. coli deletion mutants; rcsC deletion mutant): no impact on the induction of colanic acid | induction of colanic acid (E. coli deletion mutants; rcsD deletion mutant): no impact on the induction of colanic acid | induction of colanic acid (E. coli deletion mutants; zraS deletion mutant): suppressed the induction of colanic acid | MIC (E. coli; PMID 380457): 2 µg/mL (≈ 4.81 µM) | MIC (E. coli; PMID 9371340): 4 µg/mL (≈ 9.63 µM) | absorption after oral administration [2]: poorly absorbed; also recorded: near-zero absorption | oral bioavailability [2]: extremely low oral bioavailability
